Laboratory results as given in US12606528B2, “Methods and materials for inhibiting NF-kB activity” (University of Pittsburgh - Of the Commonwealth System of …, priority 2019, dated 2026).
pIC50: −log10 of the molar value. Where two headings read alike, the source gives them in different places.

Assays:
TNF release = test: TNF assay: TNF release from LPS-stimulated human PBMCs (TNF ELISA); assay type: cell-based; conditions: PBMC, read-out: IC50 (TNF assay)
Method in brief: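 TNF ELISA on supernatants read-out; cells were 10k human PBMCs/well given LPS at 10 ng/mL for 18 h after a 2 h compound pre-incubation across a concentration series, with IC50 derived for suppression of TNF secretion.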

NF-κB = NF-κB assay: THP1-NF-κB-LUC cells, LPS-stimulated secreted luciferase; assay type: cell-based; conditions: THP1-NF-κB-LUC cells, read-out: IC50 (NF-κB assay)
Method in brief: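 THP1-NF-κB-LUC cells (25k/well) were pretreated with compounds for 2 h, then stimulated with LPS (10 ng/mL) for 18 h. Secreted luciferase was measured and normalized to vehicle, and IC50 was fitted from the concentration series.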

[1] = human PBMCs, compounds 2 hours before LPS (10 ng/ml) for 18 hours, supernatant TNF ELISA
[2] = compounds 2 hours before LPS (10 ng/mL) for 18 hours, secreted luciferase
[3] = LPS-stimulated human PBMCs, TNF ELISA

Structure (SMILES) | pIC50 (TNF release; [1]) | pIC50 (NF-κB; [2]) | pIC50 (TNF release; [3]) | pIC50 (NF-κB; LPS-stimulated)
Cc1ccc(NS(=O)(=O)c2c(C)c(Cl)cc3c2OCC(=O)N3)cc1 [BC19432] | < 5.00 | 6.00 to 7.00 |  | 
Cc1ccc(NS(=O)(=O)c2c(C)c(Cl)cc3c2OCC(=O)N3)cc1Cl [BC19433] | < 5.00 | > 7.00 |  | 
Cc1c(Cl)cc2c(c1S(=O)(=O)Nc1ccc(Cl)cc1)OCC(=O)N2 [BC19434] | < 5.00 | > 7.00 |  | 
CCS(=O)(=O)c1cc2c(c(S(=O)(=O)Nc3ccc(OC(F)(F)F)cc3)c1)OCC(=O)N2 [BC19435] | < 5.00 | > 7.00 |  | 
CCS(=O)(=O)c1cc2c(c(S(=O)(=O)Nc3ccc(C)c(F)c3)c1)OCC(=O)N2 [BC19436] | < 5.00 | > 7.00 |  | 
CCS(=O)(=O)c1cc2c(c(S(=O)(=O)Nc3ccccc3)c1)OCC(=O)N2 [BC19437] | < 5.00 | > 7.00 |  | 
CCS(=O)(=O)c1cc2c(c(S(=O)(=O)Nc3ccc(OC)cc3)c1)OCC(=O)N2 [BC19438] | < 5.00 | > 7.00 |  | 
CCc1cccc(NS(=O)(=O)c2cc(S(=O)(=O)CC)cc3c2OCC(=O)N3)c1 [BC19439] | < 5.00 | > 7.00 |  | 
CCS(=O)(=O)c1cc2c(c(S(=O)(=O)Nc3cccc(F)c3)c1)OCC(=O)N2 [BC19440] | < 5.00 | > 7.00 |  | 
CCS(=O)(=O)c1cc2c(c(S(=O)(=O)Nc3cccc(Cl)c3)c1)OCC(=O)N2 [BC19441] | < 5.00 | > 7.00 |  | 
CCS(=O)(=O)c1cc2c(c(S(=O)(=O)Nc3ccc(F)cc3Cl)c1)OCC(=O)N2 [BC19442] | < 5.00 | 6.00 to 7.00 |  | 
CCS(=O)(=O)c1cc2c(c(S(=O)(=O)Nc3ccc(F)cc3)c1)OCC(=O)N2 [BC19443] | < 5.00 | > 7.00 |  | 
Cn1cnnc1-c1ccc2nc(-c3ccc(F)cc3F)c(-c3ccccc3)nc2c1 [BC19444] |  |  | < 5.00 | 6.00 to 7.00
CN1CCN(C(=O)c2ccc3nc(-c4ccc(OC(F)(F)F)cc4)c(-c4ccc(OC(F)(F)F)cc4)nc3c2)CC1 [BC19445] |  |  | < 5.00 | < 5.00
CN1CCN(C(=O)c2ccc3nc(-c4ccc(C#N)cc4)c(-c4ccc(C#N)cc4)nc3c2)CC1 [BC19446] |  |  | < 5.00 | < 5.00
CNC(=O)c1ccc2nc(-c3ccc(OC(F)(F)F)cc3)c(-c3ccc(OC(F)(F)F)cc3)nc2c1 [BC19447] |  |  | < 5.00 | < 5.00
Oc1ccc2nc(-c3ccc(F)cc3)c(-c3ccc(F)cc3)nc2n1 [BC19448] |  |  | < 5.00 | 6.00 to 7.00
O=C(O)c1ccc2nc(-c3ccc(OC(F)(F)F)cc3)c(-c3ccc(OC(F)(F)F)cc3)nc2c1 [BC19449] |  |  | < 5.00 | < 5.00
CN1CCN(C(=O)c2ccc3nc(-c4ccc(Cl)cc4)c(-c4ccc(Cl)cc4)nc3c2)CC1 [BC19450] |  |  | < 5.00 | 5.00 to 6.00
C#CCNC(=O)c1ccc2nc(-c3ccc(Cl)cc3)c(-c3ccc(Cl)cc3)nc2c1 [BC19451] |  |  | < 5.00 | 6.00 to 7.00
O=C(NCCO)c1ccc2nc(-c3ccc(Cl)cc3)c(-c3ccc(Cl)cc3)nc2c1 [BC19452] |  |  | < 5.00 | 6.00 to 7.00
O=C(NCCO)c1ccc2nc(-c3ccc(OC(F)(F)F)cc3)c(-c3ccc(OC(F)(F)F)cc3)nc2c1 [BC19453] |  |  | < 5.00 | < 5.00
O=c1[nH]ccc2cc([S+]([O-])c3ccccc3)ccc12 (stereo not drawn) [BC19454] | < 5.00 | < 5.00 |  | 
COc1ccc(S(=O)(=O)c2cnccc2O)cc1OC [BC19455] | < 5.00 | < 5.00 |  | 
O=S(=O)(c1ccc(Cl)cc1)c1cnccc1O [BC19456] | < 5.00 | < 5.00 |  | 
COc1ccc(S(=O)(=O)c2cnccc2O)cc1 [BC19457] | < 5.00 | < 5.00 |  | 
Cc1ccc([S+]([O-])c2cnccc2O)c(C)c1 (stereo not drawn) [BC19458] | < 5.00 | < 5.00 |  | 

Second part, the compound after the results:

pIC50 (TNF release; [1]) | pIC50 (NF-κB; [2]) | pIC50 (TNF release; [3]) | pIC50 (NF-κB; LPS-stimulated) | Structure (SMILES)
< 5.00 | < 5.00 |  |  | O=S(=O)(c1ccc(F)cc1)c1cnccc1O [BC19459]
< 5.00 | < 5.00 |  |  | O=S(=O)(c1ccccc1)c1cnccc1O [BC19461]
 |  | < 5.00 | 5.00 to 6.00 | COc1cccc(-c2nc(S(=O)(=O)c3ccc(Cl)cc3)c([S+]([O-])CC3CC3)[nH]2)c1 (stereo not drawn) [BC19462]
 |  | 6.00 to 7.00 | > 7.00 | CC(C)C[S+]([O-])c1oc(-c2ccc(Cl)cc2)nc1S(=O)(=O)c1ccc(Cl)cc1 (stereo not drawn) [BC19463]
 |  | > 7.00 | 6.00 to 7.00 | O=S(=O)(c1ccc(Cl)cc1)c1nc(-c2ccc(Cl)cc2)oc1[S+]([O-])CC1CC1 (stereo not drawn) [BC19464]
 |  | < 5.00 | 5.00 to 6.00 | CCC[S+]([O-])c1[nH]c(-c2ccccc2)nc1S(=O)(=O)c1ccc(Cl)cc1 (stereo not drawn) [BC19465]
 |  | < 5.00 | 5.00 to 6.00 | O=S(=O)(c1ccc(Cl)cc1)c1nc(-c2ccccc2)[nH]c1[S+]([O-])CC1CC1 (stereo not drawn) [BC19466]
 |  | 5.00 to 6.00 | 5.00 to 6.00 | O=S(=O)(CC1CC1)c1[nH]c(-c2ccccc2)nc1S(=O)(=O)c1ccc(Cl)cc1 [BC19467]
 |  | < 5.00 | 5.00 to 6.00 | COCCS(=O)(=O)c1[nH]c(-c2ccccc2)nc1S(=O)(=O)c1ccc(Cl)cc1 [BC19468]
 |  | < 5.00 | 5.00 to 6.00 | O=S(=O)(c1ccc(F)cc1)c1nc(-c2ccccc2)[nH]c1[S+]([O-])CC1CC1 (stereo not drawn) [BC19469]
 |  | < 5.00 | < 5.00 | O=S(=O)(CC1CC1)c1[nH]c(-c2ccccc2)nc1S(=O)(=O)c1ccc(F)cc1 [BC19470]
 |  | 5.00 to 6.00 | 5.00 to 6.00 | CS(=O)(=O)c1sc(-c2ccccc2)nc1S(=O)(=O)c1ccc(Cl)cc1 [BC19471]
 |  | < 5.00 | < 5.00 | CCC[S+]([O-])c1sc(-c2ccccc2)nc1S(=O)(=O)c1ccc(Cl)cc1 (stereo not drawn) [BC19472]
 |  | < 5.00 | < 5.00 | CC(C)CS(=O)(=O)c1sc(-c2ccccc2)nc1S(=O)(=O)c1ccc(Cl)cc1 [BC19473]
 |  | < 5.00 | 5.00 to 6.00 | CN(C)CC[S+]([O-])c1sc(-c2ccccc2)nc1S(=O)(=O)c1ccc(Cl)cc1 (stereo not drawn) [BC19474]
 |  | 5.00 to 6.00 | 5.00 to 6.00 | CCCS(=O)(=O)c1sc(-c2cccc(F)c2)nc1S(=O)(=O)c1ccc(Cl)cc1 [BC19475]
 |  | < 5.00 | < 5.00 | CC(C)S(=O)(=O)c1sc(-c2cccc(F)c2)nc1S(=O)(=O)c1ccc(Cl)cc1 [BC19476]
 |  | < 5.00 | < 5.00 | CC(C)CS(=O)(=O)c1sc(-c2cccc(F)c2)nc1S(=O)(=O)c1ccc(Cl)cc1 [BC19477]
 |  | 5.00 to 6.00 | < 5.00 | O=S(=O)(c1ccc(Cl)cc1)c1nc(-c2cccc(F)c2)sc1[S+]([O-])CC1CC1 (stereo not drawn) [BC19478]
 |  | < 5.00 | < 5.00 | COCC[S+]([O-])c1sc(-c2ccc(Cl)cc2)nc1S(=O)(=O)c1ccc(Cl)cc1 (stereo not drawn) [BC19479]

pIC50 (TNF release; [1]) | pIC50 (NF-κB; [2]) | pIC50 (TNF release; [3]) | pIC50 (NF-κB; LPS-stimulated) | Structure (SMILES)
 |  | < 5.00 | < 5.00 | CC(C)[S+]([O-])c1sc(-c2ccc(Cl)cc2)nc1S(=O)(=O)c1ccc(Cl)cc1 (stereo not drawn) [BC19480]
< 5.00 | > 7.00 |  |  | CS(=O)(=O)c1cc2c(c(S(=O)(=O)Nc3ccc(F)c(F)c3)c1)OCC(=O)N2 [BC19481]
< 5.00 | 6.00 to 7.00 |  |  | CS(=O)(=O)c1cc2c(c(S(=O)(=O)Nc3ccccc3)c1)OCC(=O)N2 [BC19482]
< 5.00 | > 7.00 |  |  | CS(=O)(=O)c1cc2c(c(S(=O)(=O)Nc3ccc(Cl)cc3)c1)OCC(=O)N2 [BC19483]
< 5.00 | > 7.00 |  |  | CCc1ccc(NS(=O)(=O)c2cc(S(C)(=O)=O)cc3c2OCC(=O)N3)cc1 [BC19484]
< 5.00 | > 7.00 |  |  | COc1ccc(NS(=O)(=O)c2cc(S(C)(=O)=O)cc3c2OCC(=O)N3)cc1 [BC19485]
< 5.00 | > 7.00 |  |  | Cc1ccc(NS(=O)(=O)c2cc(S(C)(=O)=O)cc3c2OCC(=O)N3)cc1Cl [BC19486]
< 5.00 | 6.00 to 7.00 |  |  | CCc1cccc(NS(=O)(=O)c2cc(S(C)(=O)=O)cc3c2OCC(=O)N3)c1 [BC19487]
< 5.00 | > 7.00 |  |  | Cc1ccc(NS(=O)(=O)c2cc(S(C)(=O)=O)cc3c2OCC(=O)N3)cc1 [BC19488]
< 5.00 | > 7.00 |  |  | Cc1c(Cl)cc2c(c1S(=O)(=O)Nc1ccc(F)c(F)c1)OCC(=O)N2 [BC19489]
< 5.00 | > 7.00 |  |  | Cc1c(Cl)cc2c(c1S(=O)(=O)Nc1ccc(OC(F)(F)F)cc1)OCC(=O)N2 [BC19490]
< 5.00 | > 7.00 |  |  | CCS(=O)(=O)c1cc2c(c(S(=O)(=O)Nc3ccc(Cl)cc3)c1)OCC(=O)N2 [BC19491]
< 5.00 | > 7.00 |  |  | CCc1ccc(NS(=O)(=O)c2cc(S(=O)(=O)CC)cc3c2OCC(=O)N3)cc1 [BC19492]
< 5.00 | > 7.00 |  |  | CCS(=O)(=O)c1cc2c(c(S(=O)(=O)Nc3ccc(C(C)C)cc3)c1)OCC(=O)N2 [BC19493]
 |  | < 5.00 | 6.00 to 7.00 | COCC(=O)N1CCC(C(=O)Cc2ccc3nc(-c4ccc(F)cc4)c(-c4ccc(F)cc4)nc3n2)CC1 [BC19494]
 |  | < 5.00 | 6.00 to 7.00 | N#Cc1cnc2nc(-c3ccc(F)cc3)c(-c3ccc(F)cc3)nc2c1 [BC19495]
 |  | < 5.00 | > 7.00 | Cn1cnnc1-c1cnc2nc(-c3ccc(F)cc3)c(-c3ccc(F)cc3)nc2c1 [BC19496]
 |  | < 5.00 | > 7.00 | O=C(NCCN1CCOCC1)c1ccc2nc(-c3ccc(Cl)cc3)c(-c3ccc(Cl)cc3)nc2c1 [BC19497]
 |  | < 5.00 | < 5.00 | CN1CCN(C(=O)c2ccc3nc(-c4cccc(N(C)C)c4)c(-c4cccc(N(C)C)c4)nc3c2)CC1 [BC19498]
